According to ChEMBL document CHEMBL5154803, “Spermine-Conjugated Short Proline-Rich Lipopeptides as Broad-Spectrum Intracellular Targeting Antibacterial Agents” (J Med Chem, 2022):
In brackets after ≈: the same amount, converted by molar mass. Activity calls are given as the source filed them. The calls are words filed in the database; no cut-off is given here. Where a SMILES comes first, the peptide text is derived from it. The star is where a group is joined. Lauroyl = CCCCCCCCCCCC(=O)*; Decanoyl = CCCCCCCCCC(=O)*; Spermine = NCCCNCCCCNCCCN*

Experiments:
[1] = tested on: Staphylococcus aureus; assay: Additive antibacterial activity against MDR-methicillin-resistant Staphylococcus aureus ATCC BAA-44 assessed as fold change in gentamicin MIC by checkerboard assay; assay type: functional
[2] = tested on: Escherichia coli; assay: Antibacterial activity against Escherichia coli ATCC 25922 assessed as reduction in bacterial growth measured after 18 hrs in presence of 10% v/v human serum in MHB by broth microdilution method; assay type: functional; conditions: ATCC 25922, Serum
[3] = Cytotoxicity against human THP-1 cells assessed as cell viability at 100 uM by MTT assay; assay type: toxicity, cell-based; conditions: read-out: Activity
[4] = tested on: Staphylococcus aureus; assay: Synergistic antibacterial activity against MDR-methicillin-resistant Staphylococcus aureus ATCC BAA-44 assessed as fractional inhibitory concentration index in presence of chloramphenicol by checkerboard assay; assay type: functional
[5] = biological target: Bacterial 70S ribosome; assay: Binding affinity to Escherichia coli MRE600 70S ribosome assessed as inhibition constant preincubated for 90 mins followed by incubation with Rho-C12-PR-Spn for 90 mins by competitive fluorescence binding assay; assay type: subcellular
[6] = tested on: Staphylococcus aureus; assay: In vivo antibacterial activity against Staphylococcus aureus ATCC 25923 infected in BALB/c mouse model assessed as reduction of bacterial load in liver at 5 mg/kg, ip administered as single dose measured after 24 hrs by colony counting based analysis (reference value: 8.1X10^4 CFU); assay type: functional
[7] = tested on: Staphylococcus aureus; assay: Synergistic antibacterial activity against MDR-methicillin-resistant Staphylococcus aureus ATCC BAA-44 assessed as fold change in chloramphenicol MIC by checkerboard assay; assay type: functional
[8] = tested on: Cell membrane; assay: Disruption of bacterial cell membrane in Escherichia coli ATCC 25922 assessed as proportion of bacteria with intact cell membrane at 5X MIC incubated for 1 hr by PI staining based flow cytometric analysis (reference value: 99.3%); assay type: subcellular
[9] = tested on: Cell membrane; assay: Disruption of bacterial cell membrane in Escherichia coli ATCC 25922 assessed as proportion of bacteria with damaged cell membrane at 1X MIC incubated for 1 hr by PI staining based flow cytometric analysis (Rvb =0.7%); assay type: subcellular
[10] = tested on: Staphylococcus aureus; assay: Additive antibacterial activity against MDR-methicillin-resistant Staphylococcus aureus ATCC BAA-44 assessed as rifampicin MIC by checkerboard assay; assay type: functional
[11] = tested on: Staphylococcus aureus; assay: In vivo antibacterial activity against Staphylococcus aureus ATCC 25923 infected in BALB/c mouse model assessed as reduction of bacterial load in kidney at 5 mg/kg, ip administered as single dose measured after 24 hrs by colony counting based analysis (reference value: 2X10^4 CFU); assay type: functional
[12] = tested on: Staphylococcus aureus; assay: Antibacterial activity against methicillin-resistant Staphylococcus aureus ATCC 33591 assessed as reduction in bacterial growth measured after 18 hrs by broth microdilution method; assay type: functional
[13] = tested on: Staphylococcus aureus; assay: In vivo antibacterial activity against Staphylococcus aureus ATCC 25923 infected in BALB/c mouse model assessed as reduction of bacterial load in spleen at 5 mg/kg, ip administered as single dose measured after 24 hrs by colony counting based analysis (reference value: 6X10^3 CFU); assay type: functional
[14] = tested on: Staphylococcus aureus; assay: Additive antibacterial activity against MDR-methicillin-resistant Staphylococcus aureus ATCC BAA-44 assessed as tetracycline MIC by checkerboard assay; assay type: functional
[15] = tested on: Escherichia coli; assay: Antibacterial activity against Escherichia coli MRE600 assessed as reduction in bacterial growth measured after 18 hrs by broth microdilution method; assay type: functional
[16] = tested on: Staphylococcus aureus; assay: Additive antibacterial activity against MDR-methicillin-resistant Staphylococcus aureus ATCC BAA-44 assessed as fractional inhibitory concentration index in presence of gentamicin by checkerboard assay; assay type: functional
[17] = tested on: Cell membrane; assay: Disruption of bacterial cell membrane in Escherichia coli ATCC 25922 assessed as proportion of bacteria with damaged cell membrane at 5X MIC incubated for 1 hr by PI staining based flow cytometric analysis (reference value: 0.7%); assay type: subcellular
[18] = tested on: Erythrocyte; assay: Hemolytic activity against human RBC assessed as hemolysis upto 100 uM incubated for 1 hr by ELISA plate reader analysis; assay type: toxicity, cell-based
[19] = tested on: Staphylococcus aureus; assay: Additive antibacterial activity against MDR-methicillin-resistant Staphylococcus aureus ATCC BAA-44 assessed as gentamicin MIC by checkerboard assay; assay type: functional
[20] = tested on: Staphylococcus aureus; assay: Synergistic antibacterial activity against MDR-methicillin-resistant Staphylococcus aureus ATCC BAA-44 assessed as neomycin MIC by checkerboard assay; assay type: functional
[21] = Acute toxicity in BALB/c mouse assessed as mouse survival at 10 mg/kg, ip measured for 7 days; assay type: organism-based; conditions: in vivo, time 7 day
[22] = tested on: Staphylococcus aureus; assay: Additive antibacterial activity against MDR-methicillin-resistant Staphylococcus aureus ATCC BAA-44 assessed as fractional inhibitory concentration index in presence of rifampicin by checkerboard assay; assay type: functional
[23] = tested on: Staphylococcus aureus; assay: Synergistic antibacterial activity against MDR-methicillin-resistant Staphylococcus aureus ATCC BAA-44 assessed as ampicillin MIC by checkerboard assay; assay type: functional
[24] = tested on: Staphylococcus aureus; assay: Additive antibacterial activity against MDR-methicillin-resistant Staphylococcus aureus ATCC BAA-44 assessed as fold change in rifampicin MIC by checkerboard assay; assay type: functional
[25] = tested on: Escherichia coli; assay: Antibacterial activity against Escherichia coli ATCC 25922 assessed as reduction in bacterial growth measured after 18 hrs by broth microdilution method; assay type: functional
[26] = biological target: Bacterial 70S ribosome (Bacteria) (UniProt P0A7V0+P60723+P0AG67+P0A7R5+P0A7R9+P0A7S3+P0A7S9+P0AG59+P0ADZ4+P0A7T3+P0AG63+P0A7T7+P0A7U3+P0A7U7+P68679+P0A7V3+P0A7V8+P0A7W1+P02358+P02359+P0A7W7+P0A7X3+P0A7J3+P0A7J7+P0AA10+P0ADY3+P02413+P0ADY7+P0AG44+P0C018+P0A7K6+P0A7L0+P0A7L3+P0AG48+P61175+P0ADZ0+P60624+P68919+P0A7L8+P0A7M2+P0A7M6+P60422+P0AG51+P0A7N1+P0A7M9+P0A7N4+P0A7N9+P0A7P5+P0A7Q1+Q2EEQ2+P0A7Q6+P60438+P62399+P0AG55+P0A7K2); assay: Inhibition of 70S ribosome-mediated protein synthesis in Escherichia coli at 5XMIC incubated for 1 hr by renilla luciferase based luminescence assay; assay type: subcellular
[27] = tested on: Cell membrane; assay: Disruption of bacterial cell membrane in Escherichia coli ATCC 25922 assessed as proportion of bacteria with intact cell membrane at 1X MIC incubated for 1 hr by PI staining based flow cytometric analysis (reference value: 99.3%); assay type: subcellular
[28] = tested on: Escherichia coli; assay: Bacteriostatic activity against Escherichia coli ATCC 25922 at 1XMIC incubated for 4 hrs followed by plating on MHII agar pate for 24 hrs; assay type: functional, organism-based; conditions: time 28.0 hrs
[29] = tested on: Staphylococcus aureus; assay: Synergistic antibacterial activity against MDR-methicillin-resistant Staphylococcus aureus ATCC BAA-44 assessed as chloramphenicol MIC by checkerboard assay; assay type: functional
[30] = tested on: Staphylococcus epidermidis; assay: Antibacterial activity against methicillin-resistant Staphylococcus epidermidis ATCC 51625 assessed as reduction in bacterial growth measured after 18 hrs by broth microdilution method; assay type: functional
[31] = tested on: Staphylococcus aureus; assay: Antibacterial activity against MDR-methicillin-resistant Staphylococcus aureus ATCC BAA-44 assessed as reduction in bacterial growth measured after 18 hrs by broth microdilution method; assay type: functional
[32] = tested on: Staphylococcus aureus; assay: Additive antibacterial activity against MDR-methicillin-resistant Staphylococcus aureus ATCC BAA-44 assessed as fractional inhibitory concentration index in presence of tetracycline by checkerboard assay; assay type: functional

Compound | fold change (FC) [1] | MIC [2] [µM] | viability at 100 µM [3] [%] | fractional inhibitory concentration index (FICI) [4] | Ki [5] [nM] | Activity [6] | fold change (FC) [7] | Activity [8] [%] | Activity [9] [%] | MIC [10] [µg/mL] | Activity [11] | MIC [12] [µM] | Activity [13] | MIC [14] [µg/mL] | MIC [15] [µM] | fractional inhibitory concentration index (FICI) [16] | Activity [17] [%] | Activity [18] | MIC [19] [µg/mL] | MIC [20] [µg/mL] | other results
CCCCCCCCCC(=O)N1CCC[C@H]1C(=O)N[C@@H](CCCNC(=N)N)C(=O)N1CCC[C@H]1C(=O)N[C@@H](CCCNC(=N)N)C(=O)N1CCC[C@H]1C(=O)N1CCC[C@H]1C(=O)N[C@@H](CCCNC(=N)N)C(=O)NCCCNCCCCNCCCN (Decanoyl-PRPRPPR-Spermine) | 2 | 6.2 | 80 | 2 | 33.8 | <4 10^2CFU | 1 | 90.4 | 6.11 | 0.625 | <4 10^2CFU | 3.1 (≈ 3.76 µg/mL) | <4 10^2CFU | 31.2 | 3.1 (≈ 3.76 µg/mL) | 0.745 | 9.56 | Non-Toxic | 1.25 | 7.81 | survival at 168 h [21]: 100%; fractional inhibitory concentration index (FICI) [22]: 0.625; MIC [23]: 7.81 µg/mL; fold change (FC) [24]: 2; MIC [25]: 3.1 µM (≈ 3.76 µg/mL); inhibition [26]: Active; Activity [27]: 93.9%; Activity [28]: Active; MIC [29]: 1000 µg/mL; MIC [30]: 3.1 µM (≈ 3.76 µg/mL); MIC [31]: 3.1 µM (≈ 3.76 µg/mL); fractional inhibitory concentration index (FICI) [32]: 0.625
CCCCCCCCCCCC(=O)N1CCC[C@H]1C(=O)N[C@@H](CCCNC(=N)N)C(=O)N1CCC[C@H]1C(=O)N[C@@H](CCCNC(=N)N)C(=O)N1CCC[C@H]1C(=O)N1CCC[C@H]1C(=O)N[C@@H](CCCNC(=N)N)C(=O)NCCCNCCCCNCCCN (Lauroyl-PRPRPPR-Spermine) | 1 | 3.1 | 65 | 0.5 | 21.7 | <4 10^2CFU | 4 | 72.7 | 7.09 | 0.625 | <4 10^2CFU | 1.5 (≈ 1.86 µg/mL) | <4 10^2CFU | 31.2 | 3.1 (≈ 3.85 µg/mL) | 0.745 | 27.3 | Non-Toxic | 1.25 | 7.81 | survival at 168 h [21]: 100%; fractional inhibitory concentration index (FICI) [22]: 1; MIC [23]: 3.9 µg/mL; fold change (FC) [24]: 2; MIC [25]: 3.1 µM (≈ 3.85 µg/mL); inhibition [26]: Active; Activity [27]: 92.9%; Activity [28]: Active; MIC [29]: 250 µg/mL; MIC [30]: 1.5 µM (≈ 1.86 µg/mL); MIC [31]: 1.5 µM (≈ 1.86 µg/mL); fractional inhibitory concentration index (FICI) [32]: 0.625
